Patent US20090227671A1, “Prevention and treatment of atherosclerosis with lithospermate B” (Industry-Academic Cooperation Foundation, priority 2005, published 2009)

What was measured:
[1] = system: vascular smooth muscle cells; assay: VSMC migration induced by PDGF-BB (modified Boyden chamber); format: cell-based, Sprague-Dawley rats; settings: pretreated with LAB, various concentrations; 16 hrs
Procedure: The migration of VSMC with 8 μm of pores was measured by using modified Boyden chamber method [Brown C, Pan X, Hassid A. Nitric oxide and C-type atrial natriuretic peptide stimulate primary aortic smooth muscle cell migration via a cGMP-dependent mechanism: relationship to microfilament dissociation and altered cell morphology. Circ Res. Apr. 2 1999; 84(6):655-667], which utilizes collagen-coated transwell tissue culture inserts consisting of polycarbonate membrane. 3.0×10^6 cells/mL of the above vascular smooth muscle cells were allowed to float in a culture medium without serum, treated with LAB with various concentrations and then cultured at 37° C. for 30 min. Then, the cells were treated with either 0.5 mL DMEM without serum or 0.5 mL DMEM without serum along with PDGF-BB 10 ng/mL and then placed in the lower part of a chamber. 100 μL of the folating materials of the above cells (final 3.0×10^5 cells/well) was added to the upper part of the chamber and cultured at 37° C. for 16 hrs. The cells were then fixed, dyed with hematoxylin, and filters were dried and developed.
It is known that […] plays an important role in proliferation of VSMC as well as development of atherosclerosis. To investigate whether LAB decreases the migration of VSMC induced by PDGF-BB, an experiment was performed as follows by using the aforementioned modified Boyden chamber method.

[2] = system: intracellular reactive oxygen species; assay: Intracellular reactive oxygen species in VSMC (DCF fluorescence); format: cell-based, Sprague-Dawley rats; settings: LAB pretreatment 1 hr
Procedure: The amount of reactive oxygen species in cells was measured as described in the previous report [Hamaguchi A, Kim S, Izumi Y, et al. Contribution of extracellular signal-regulated kinase to angiotensin II-induced transforming growth factor-beta1 expression in vascular smooth muscle cells. Hypertension. July 1999; 34(1):126-131]. VSMC was cultured in a culture medium without serum for 24 hrs to stop cell proliferation and then pretreated with LAB with various concentrations of 1, 5, 10, 20, 30 μM for 1 hr. The cells were treated with either 10 ng/mL of PDGF-BB for 10 min or with 100 μM H2O2 for 1 min and then cultured in the presence of 5-(and-6)-chloromethyl-2′,7′-dichlorohydrofluorescein diacetate(CM-H2DCF-DA: Molecular Probes Inc., Eurogene, Oreg., USA) in the dark room for 10 min and cultured cells and generation of reactive oxygen species were observed by using fluorescent microscope.
First, the amount of intracellular reactive oxygen species generated by PDGF-BB was measured by using peroxide-sensitive fluorophore DCF. As shown in FIG. 3A (B-1), the amount of intracellular reactive oxygen species generated by PDGF-BB evaluated with DCF fluorescence was 2.7 times greater. […] In this experiment, LAB was treated with PDGF-BB for 10 min. When LAB was pretreated, the amount of DCF fluorescence was decreased as compared to when it was treated only with PDGF-BB [FIG. 3A(A)]. […] Further, LAB decreased the activity of hydrogen peroxide, which increases the generation of intracellular reactive oxygen species, in proportion to its concentration (FIG. 3A(C)).

ERK1/2 = assay: Western blot of ERK1/2 phosphorylation in VSMC induced by PDGF-BB; format: cell-based, Sprague-Dawley rats
Procedure: VSMC was washed with PBS and then dissolved in lysis buffer (25 mM Tris HCl, pH 7.4, 25 mM NaCl, 25 mM NaF, 25 mM sodium pyrophosphate, 1 mM sodium vanadate, 2.5 mM EDTA, 2.5 mM EGTA, 0.05% (wt/vol) Triton X-100, 0.5% (wt/vol) SDS, 0.5% (wt/vol) deoxycholate, 0.5% (wt/vol) Nonidet P-40, […], and 1 mM PMSF). The cells were collected and centrifuged at 13,000 rpm for 15 min and the protein concentration of the resulting supernatant was measured by Bradford assay. The proteins were denatured and were subjected to SDS-PAGE and then blotted onto nitrocellulose membranes. The membranes were placed in 5% (w/v) non-fat dry milk in TBS with 0.1% Tween20 (TBS-T) and then placed at room temperature for 3 hrs. The blots were placed at 4° C. along with anti-ERK1/2 or anti-Akt antibodies (Cell signaling Technologh, Berely. Mass., USA) for 16 hrs. The membranes were washed 4 times with TBS-T, added with anti-rabbit IgG antibody conjugated with horseradish peroxidase (1:2,000 diluent) and then placed at room temperature for 1 hr. The immunoreactive bands detected by ECL reagents were developed by Hyperfilm-ECL (Amersham Life Science, Little Chalfont, UK). The bands showing positive responses were quantitated by densitometry and then compared with that of control.
In FIG. 1B, it is shown that both U0126 (20 μM) and LY294002 (40 μM) inhibited activities of LDH and MTT induced by PDGF-BB. As a way to investigate the signal transduction pathway involved in VSMC proliferation induced by PDGF-BB, an experiment was conducted to examine whether PDGF-BB activates a relatively lower signal transduction pathway such as ERK1/2 and Akt.

[3] = system: common carotid arteries after balloon injury; assay: Neointimal hyperplasia in balloon-injured carotid artery animal model; format: in vivo, Sprague-Dawley rats; settings: LAB 10 mg/kg/day from 2 days prior to PTA, compared with placebo
Source text: Two French Forgarty embolectomy catheters were inserted into white male Sprague-Dawley (300 g) through external carotid arteries, and blood vessels were intentionally damaged by moving catheters, which were swollen by adding a physiological saline solution, 3 times vertically within the common carotid thereby expanding blood vessels while shedding off the endothelial cells. A total of 30 rats were divided into 3 groups (10 rats/group) and used in this experiment: group 1 was not treated; group 2 was damaged with their blood vessels; and group 3 was treated with LAB and then damaged with their blood vessels. LAB (10 mg/kg/day) was injected intravenously for a period of 30 days (i.e., from 2 days prior to the blood vessel damage to 28 days after the blood vessel damage). The rats were sacrificed on the 28th day after the blood vessel damage by ablating carotid artery and it was fixed with 4% formaldehyde and then dyed with hematoxylineosin. The mid parts of the damaged blood vessel were cut into 2-4 parts and analyzed via computerized morphometry (SCN Image). […]
White Sprague-Dawley rats were damaged by using percutaneous transluminal angioplastyas (‘PTA’) as stated above. […] On the 2oth day after the surgery the rats were sacrificed and the Intima-Media Thickness (‘IMT’) was measured.

O=C(/C=C/c1ccc(O)c2c1[C@H](C(=O)O[C@H](Cc1ccc(O)c(O)c1)C(=O)[O-])[C@@H](c1ccc(O)c(O)c1)O2)O[C@H](Cc1ccc(O)c(O)c1)C(=O)[O-].[Mg+2] [LAB, lithospermate B]
migration of VSMC induced by PDGF-BB [1]: decreased in proportion to the concentration | amount of intracellular reactive oxygen species generated by PDGF-BB ([2]; 10 ng/mL PDGF-BB 10 min): decreased in proportion to the concentration | intracellular reactive oxygen species induced by hydrogen peroxide ([2]; 100 μM H2O2 1 min): decreased | decrease of ERK1/2 phosphorylation (ERK1/2; 30 μM LAB, 20 mM NAC, 1 h, then PDGF-BB 10 min, FIG. 5C): 0.8 fold | phosphorylation of ERK1/2 due to PDGF-BB (ERK1/2; LAB 1, 5, 10, 20, 30 μM for 1 h, PDGF-BB 10 min, FIG. 5B): inhibits | most effective concentration, inhibition of ERK1/2 phosphorylation (ERK1/2; PDGF-BB 10 ng/mL): 30 µM | increase in Intima-Media Thickness (IMT) [3]: much low
